Assay results published in PubChem BioAssay (NCI).
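In this assay, cells in 96-well plates receive the compound at five concentrations for 48 hours. Endpoints are linearly interpolated between the surrounding concentrations. TGI: concentration producing complete growth inhibition.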

Experiments:
Experiment in all cases: NCI tumour cell line growth inhibition, 48 h
ACHN renal = tested on: ACHN renal
HL-60(TB) leukemia = tested on: HL-60(TB) leukemia
786-0 renal = tested on: 786-0 renal
MDA-N = tested on: MDA-N
MOLT-4 leukemia = tested on: MOLT-4 leukemia
T-47D breast = tested on: T-47D breast
CCRF-CEM leukemia = tested on: CCRF-CEM leukemia
NCI-H522 lung = tested on: NCI-H522 lung
A549 NSCLC = tested on: A549 NSCLC
NCI-H23 lung = tested on: NCI-H23 lung
COLO 205 colon = tested on: COLO 205 colon
A498 renal = tested on: A498 renal
HCT-116 colon = tested on: HCT-116 colon
SF-295 CNS = tested on: SF-295 CNS
RXF 393 renal = tested on: RXF 393 renal
OVCAR-3 ovarian = tested on: OVCAR-3 ovarian
OVCAR-5 ovarian = tested on: OVCAR-5 ovarian
MALME-3M melanoma = tested on: MALME-3M melanoma
HT29 colon = tested on: HT29 colon
SK-MEL-28 melanoma = tested on: SK-MEL-28 melanoma
EKVX NSCLC = tested on: EKVX NSCLC
PC-3 prostate = tested on: PC-3 prostate
SF-268 CNS = tested on: SF-268 CNS
MDA-MB-231 breast = tested on: MDA-MB-231 breast
TK-10 renal = tested on: TK-10 renal
LOX IMVI melanoma = tested on: LOX IMVI melanoma
MDA-MB-435 = tested on: MDA-MB-435
HCC-2998 colon = tested on: HCC-2998 colon
M14 melanoma = tested on: M14 melanoma
CAKI-1 renal = tested on: CAKI-1 renal
HOP-62 NSCLC = tested on: HOP-62 NSCLC
SNB-19 CNS = tested on: SNB-19 CNS
U251 CNS = tested on: U251 CNS
IGROV1 ovarian = tested on: IGROV1 ovarian
HOP-92 NSCLC = tested on: HOP-92 NSCLC
HS 578T breast = tested on: HS 578T breast
MCF7 breast = tested on: MCF7 breast
SF-539 CNS = tested on: SF-539 CNS
OVCAR-4 ovarian = tested on: OVCAR-4 ovarian
K-562 leukemia = tested on: K-562 leukemia
OVCAR-8 ovarian = tested on: OVCAR-8 ovarian
NCI-H226 lung = tested on: NCI-H226 lung
SW-620 colon = tested on: SW-620 colon
SK-OV-3 ovarian = tested on: SK-OV-3 ovarian
BT-549 breast = tested on: BT-549 breast
HCT-15 colon = tested on: HCT-15 colon
NCI/ADR-RES ovarian = tested on: NCI/ADR-RES ovarian
SK-MEL-5 melanoma = tested on: SK-MEL-5 melanoma
UO-31 renal = tested on: UO-31 renal
UACC-257 melanoma = tested on: UACC-257 melanoma
SNB-75 CNS = tested on: SNB-75 CNS
NCI-H460 lung = tested on: NCI-H460 lung
SN12C renal = tested on: SN12C renal
SR leukemia = tested on: SR leukemia
UACC-62 melanoma = tested on: UACC-62 melanoma
DU-145 prostate = tested on: DU-145 prostate
KM12 colon = tested on: KM12 colon
SK-MEL-2 melanoma = tested on: SK-MEL-2 melanoma
RPMI-8226 leukemia = tested on: RPMI-8226 leukemia

Measured: TGI

c1cc(CSc2ncnc3nc[nH]c23)ccn1
> 100 µM: ACHN renal | HL-60(TB) leukemia | 786-0 renal | MDA-N | MOLT-4 leukemia | T-47D breast | CCRF-CEM leukemia | NCI-H522 lung | A549 NSCLC | NCI-H23 lung | COLO 205 colon | A498 renal | HCT-116 colon | SF-295 CNS | RXF 393 renal | OVCAR-3 ovarian | OVCAR-5 ovarian | MALME-3M melanoma | HT29 colon | SK-MEL-28 melanoma | EKVX NSCLC | PC-3 prostate | SF-268 CNS | MDA-MB-231 breast | TK-10 renal | LOX IMVI melanoma | MDA-MB-435 | HCC-2998 colon | M14 melanoma | CAKI-1 renal | HOP-62 NSCLC | SNB-19 CNS | U251 CNS | IGROV1 ovarian | HOP-92 NSCLC | HS 578T breast | MCF7 breast | SF-539 CNS | OVCAR-4 ovarian | K-562 leukemia | OVCAR-8 ovarian | NCI-H226 lung | SW-620 colon | SK-OV-3 ovarian | BT-549 breast | HCT-15 colon | NCI/ADR-RES ovarian | SK-MEL-5 melanoma | UO-31 renal | UACC-257 melanoma | SNB-75 CNS | NCI-H460 lung | SN12C renal | SR leukemia | UACC-62 melanoma | DU-145 prostate | KM12 colon | SK-MEL-2 melanoma | RPMI-8226 leukemia
